Laboratory results published in article PMC6076925, “Identification of Digestive Enzyme Inhibitors from Ludwigia octovalvis (Jacq.) P.H.Raven” (Evidence-based Complementary and Alternative Medicine : eCAM, 2018).

Tests used:
α–glucosidases [1] = assay: α–glucosidase inhibition assay (crude intestinal enzyme, corn starch substrate); assay type: biochemical, Wistar rats; details: for Inhibition percentage α–glucosidases: mean ± standard deviation; for IC50: pure compounds, intestinal rat enzyme, starch as substrate
Description: The α–glucosidase assay was previously reported. In brief, corn starch (4 mg/mL) was digested by crude enzyme at 37°C during 10 minutes in a phosphate buffer pH 7 solution at a sample concentration of 0.6 mg/mL (dissolved in DMSO and water). Subsequently, released glucose was quantified by a glucose oxidase-based clinical reagent with the GOD–POD Trinder kit (Spinreact, Girona, Spain) following manufacturer's directions. All tests were performed in quadruplicate. Crude enzyme was obtained directly from healthy Wistar rats (12 h fasting). The small intestine was flushed several times with ice-cold isotonic buffer pH 7 and after the scraping of the mucosa, it was homogenized and stored at -20°C. Animal care and management were carried out under the guidelines of Mexican Official Standard NOM–062–ZOO–1999.
(§1) The logarithm of the concentration was plotted on the x-axis and the percentage of enzymatic inhibitory activity on the y-axis to obtain a semilogarithmic graphic.

[2] = biological target: T1, lipase from porcine pancreas (Sus scrofa, UniProt P00591); assay: Pancreatic lipase inhibition assay (DMPTB/DTNB); assay type: biochemical; details: for inhibition at 250 µg/mL: sample at 0.25 mg/mL
T1 construct: lipase from porcine pancreas (PPL type II, 100–500 units/mg, L3126); purchased Sigma–Aldrich L3126; host or cells: porcine pancreas
T1 sequence (P00591 1-450): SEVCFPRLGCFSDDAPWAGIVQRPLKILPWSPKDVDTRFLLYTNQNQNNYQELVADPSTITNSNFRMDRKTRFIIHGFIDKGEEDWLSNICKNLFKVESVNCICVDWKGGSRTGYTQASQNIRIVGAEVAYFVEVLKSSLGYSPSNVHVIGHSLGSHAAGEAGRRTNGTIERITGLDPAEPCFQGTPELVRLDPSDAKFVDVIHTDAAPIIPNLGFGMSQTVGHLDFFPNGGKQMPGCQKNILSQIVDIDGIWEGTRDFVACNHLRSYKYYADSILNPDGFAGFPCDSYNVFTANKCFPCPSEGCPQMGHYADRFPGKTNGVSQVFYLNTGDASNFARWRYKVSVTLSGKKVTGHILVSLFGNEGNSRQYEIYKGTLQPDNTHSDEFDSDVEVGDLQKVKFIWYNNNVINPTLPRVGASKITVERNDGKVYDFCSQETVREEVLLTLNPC
Description: Pancreatic lipase inhibition assay was previously reported. Briefly, the absorbance of a mixture of DTNB 0.2 mM, DMPTB 0.8 mM, NaCl 0.1M, CaCl2 2 mM, Triton X–100 0.04%, porcine lipase 65 μg/mL, and the sample (dissolved in DMSO and water) at 0.25 mg/mL was followed with a Thermo Scientific Genesys 20 Visible Spectrophotometer (Fisher Scientific, 4001000, Hampton, NH) at 412 nm every 20 s for five minutes and plotted (Excel, Microsoft) to obtain initial velocity value. The lipase was prepared as a stock at 10 mg/mL in Tris–HCl 25 mM pH 6.2 with 0.1 M NaCl, SDS 2 mM, and 250 μL/mL of glycerol. A control assay without substrate was carried out to discard nonspecific reactions with DTMB. All reactions were tested by triplicate.
as §1

α–glucosidases [3] = assay: Type of inhibition and Ki on α–glucosidases by Lineweaver–Burk plots (maltodextrin substrate); assay type: biochemical, Wistar rats; details: for Type of enzymatic inhibition of α–glucosidases: Lineweaver–Burk plots
Description: (§2) The type of inhibition was determined quantifying the activity with and without inhibitor at different substrate concentrations (5–0.35 mg/mL for α–glucosidases and 0.05–0.2 μg/mL for pancreatic lipase) and comparing Lineweaver–Burk plots (inverse substrate concentration [S] and inverse reaction velocity V). In the case of the determination of α–glucosidase type of inhibition, the substrate was changed from corn starch to maltodextrin (MD100, Luzhou Bio–Chem Technology Co., Shandong, China), in order to have greater uniformity in the reaction.
Michaelis–Menten constant (Km) and apparent Km (Km^app) were obtained analysing the Lineweaver–Burk plots. These values allowed to obtain the inhibition constant (Ki) for competitive inhibitors using (2), where [I] represents inhibitor concentration.(2) Km^app=Km1+I/Ki

maltase = biological target: maltase; set-up: method as in doi:10.1016/j.foodchem.2010.03.075; details: rat; read-out: IC50 inhibition of maltase; cited from earlier work
sucrase = biological target: sucrase; set-up: method as in doi:10.1016/j.foodchem.2010.03.075; details: rat; read-out: IC50 inhibition of sucrase; cited from earlier work
pancreatic lipase = biological target: T2, pancreatic lipase (Sus scrofa, UniProt P00591); assay: Type of inhibition on pancreatic lipase by Lineweaver–Burk plots; assay type: biochemical, porcine
T2 construct: lipase from porcine pancreas (PPL type II, 100–500 units/mg, L3126); purchased Sigma–Aldrich L3126; host or cells: porcine pancreas
T2 sequence (P00591 1-450): T1 sequence (P00591 1-450)
Description: as §2

[4] = mean ± standard deviation, read-out: Inhibition percentage Pancreatic lipase

For C[C@H]1O[C@H](O[C@H]2[C@H](O)[C@@H](O)[C@@H](O[C@H]3[C@H](O)[C@@H](O)C(O)O[C@@H]3CO)O[C@@H]2CO)[C@H](O)[C@@H](O)[C@@H]1N[C@H]1C=C(CO)[C@@H](O)[C@H](O)[C@H]1O (some centres unmarked) [Acarbose, acarbose, reference compound], the “Inhibition percentage α–glucosidases” value (α–glucosidases [1]; evaluated at 5.8 µM) was 50.0 ± 1.6∗ %.

In the case of CCOC(=O)c1cc(O)c(O)c(O)c1 [C1F1 (ethyl gallate), ethyl gallate], the IC50 (α–glucosidases [1]) is reported as 832 µM, the “Inhibition percentage α–glucosidases” value (α–glucosidases [1]; sample at 0.6 mg/mL) is reported as 98.4 ± 2.0% and the inhibition at 250 µg/mL [2, 4] is reported as 23.2 ± 3%. For the same compound, the “Type of enzymatic inhibition of α–glucosidases” value (α–glucosidases [3]) was “competitive enzymatic inhibition”, the Ki (α–glucosidases [3]; inhibitor at 625 μM) was 636 µM and the Ki (α–glucosidases [3]; inhibitor at 1250 μM) was 315 µM. For the same compound, the IC50 (maltase) was 415 µM and the IC50 (sucrase) was 660 µM.

In the case of O=C(O)c1cc(O)c(O)c(O)c1 [C2F1 (gallic acid), gallic acid], the IC50 (α–glucosidases [1]) is reported as 969 µM, the “Inhibition percentage α–glucosidases” value (α–glucosidases [1]; sample at 0.6 mg/mL) is reported as 98.9 ± 0.6% and the “Type of enzymatic inhibition of α–glucosidases” value (α–glucosidases [3]) is reported as “competitive enzymatic inhibition”. For the same compound, the Ki (α–glucosidases [3]; inhibitor at 625 μM) was 436 µM, the Ki (α–glucosidases [3]; inhibitor at 1250 μM) was 208 µM and the IC50 (maltase) was 390 µM. For the same compound, the IC50 (sucrase) was 130 µM.

With O=c1cc(-c2ccc(O)c(O)c2)oc2cc(O)c([C@@H]3O[C@H](CO)[C@@H](O)[C@H](O)[C@H]3O)c(O)c12 [C4F4–P (isoorientin), isoorientin] the IC50 ([2]; pure compound) was 201 µM, the inhibition at 250 µg/mL [2, 4] was 55.1 ± 3.1% and the “Type of enzymatic inhibition of pancreatic lipase” value (pancreatic lipase) was “uncompetitive enzymatic inhibition”.

With O=c1cc(-c2ccc(O)c(O)c2)oc2cc(O)cc(O)c12 [Luteolin, reference compound] the IC50 (α–glucosidases [1]) was 1260 µM, the IC50 (α–glucosidases [1]; listed as luteolin) was about 1260 µM and the “Inhibition percentage α–glucosidases” value (α–glucosidases [1]; sample at 0.6 mg/mL) was 66.3 ± 5.6%.

For CCCCCCCCCCC[C@@H](C[C@@H]1OC(=O)[C@H]1CCCCCC)OC(=O)[C@H](CC(C)C)NC=O [Orlistat, orlistat, reference compound], the inhibition at 1.6 µM ([2]; evaluated at 1.6 µM, mean ± standard deviation, read-out: Inhibition percentage Pancreatic lipase) was 50 ± 2.6%.
